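Grown in 96-well plates, cells were treated for 48 hours with each compound at five concentrations. Insufficient inhibition: endpoint recorded as highest concentration tested. Abbreviation: GI50, concentration required for 50% inhibition of growth. TGI: concentration producing complete growth inhibition.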
Assays:
Assay in all cases: NCI tumour cell line growth inhibition, 48 h
NCI-H460 lung = test system: NCI-H460 lung
SNB-75 CNS = test system: SNB-75 CNS
MDA-MB-231 breast = test system: MDA-MB-231 breast
RXF 393 renal = test system: RXF 393 renal
T-47D breast = test system: T-47D breast
MOLT-4 leukemia = test system: MOLT-4 leukemia
NCI-H23 lung = test system: NCI-H23 lung
A498 renal = test system: A498 renal
OVCAR-5 ovarian = test system: OVCAR-5 ovarian
NCI/ADR-RES ovarian = test system: NCI/ADR-RES ovarian
SNB-19 CNS = test system: SNB-19 CNS
CAKI-1 renal = test system: CAKI-1 renal
BT-549 breast = test system: BT-549 breast
PC-3 prostate = test system: PC-3 prostate
SF-268 CNS = test system: SF-268 CNS
DU-145 prostate = test system: DU-145 prostate
MALME-3M melanoma = test system: MALME-3M melanoma
SK-MEL-2 melanoma = test system: SK-MEL-2 melanoma
MCF7 breast = test system: MCF7 breast
HCT-15 colon = test system: HCT-15 colon
NCI-H522 lung = test system: NCI-H522 lung
UO-31 renal = test system: UO-31 renal
MDA-MB-468 breast = test system: MDA-MB-468 breast
HL-60(TB) leukemia = test system: HL-60(TB) leukemia
ACHN renal = test system: ACHN renal
COLO 205 colon = test system: COLO 205 colon
UACC-62 melanoma = test system: UACC-62 melanoma
IGROV1 ovarian = test system: IGROV1 ovarian
M14 melanoma = test system: M14 melanoma
HT29 colon = test system: HT29 colon
OVCAR-3 ovarian = test system: OVCAR-3 ovarian
NCI-H226 lung = test system: NCI-H226 lung
SK-MEL-28 melanoma = test system: SK-MEL-28 melanoma
MDA-MB-435 = test system: MDA-MB-435
UACC-257 melanoma = test system: UACC-257 melanoma
RPMI-8226 leukemia = test system: RPMI-8226 leukemia
SF-539 CNS = test system: SF-539 CNS
EKVX NSCLC = test system: EKVX NSCLC
KM12 colon = test system: KM12 colon
HCT-116 colon = test system: HCT-116 colon
CCRF-CEM leukemia = test system: CCRF-CEM leukemia
HCC-2998 colon = test system: HCC-2998 colon
K-562 leukemia = test system: K-562 leukemia
OVCAR-4 ovarian = test system: OVCAR-4 ovarian
SK-MEL-5 melanoma = test system: SK-MEL-5 melanoma
786-0 renal = test system: 786-0 renal
SN12C renal = test system: SN12C renal
OVCAR-8 ovarian = test system: OVCAR-8 ovarian
LOX IMVI melanoma = test system: LOX IMVI melanoma
A549 NSCLC = test system: A549 NSCLC
TK-10 renal = test system: TK-10 renal
SF-295 CNS = test system: SF-295 CNS
HOP-62 NSCLC = test system: HOP-62 NSCLC
HS 578T breast = test system: HS 578T breast
SK-OV-3 ovarian = test system: SK-OV-3 ovarian
U251 CNS = test system: U251 CNS
HOP-92 NSCLC = test system: HOP-92 NSCLC
SW-620 colon = test system: SW-620 colon

Cn1cc(-c2cc(N)n3nc(-c4cn(C)c5ncc(Br)cc45)cc3n2)c2cc(Br)cnc21
GI50 (NCI-H460 lung): 1.91 µM | TGI (NCI-H460 lung): 3.89 µM | GI50 (SNB-75 CNS): 8.48 µM | TGI (SNB-75 CNS): 26.3 µM | GI50 (MDA-MB-231 breast): 2.59 µM | TGI (MDA-MB-231 breast): 9.79 µM | GI50 (RXF 393 renal): 2.62 µM | TGI (RXF 393 renal): 6.9 µM | GI50 (T-47D breast): 2.35 µM | TGI (T-47D breast): 9.43 µM | GI50 (MOLT-4 leukemia): 1.53 µM | TGI (MOLT-4 leukemia): 4.37 µM | GI50 (NCI-H23 lung): 1.92 µM | TGI (NCI-H23 lung): 3.76 µM | GI50 (A498 renal): > 100 µM | TGI (A498 renal): > 100 µM | GI50 (OVCAR-5 ovarian): 10.5 µM | TGI (OVCAR-5 ovarian): 33.9 µM | GI50 (NCI/ADR-RES ovarian): 2.04 µM | TGI (NCI/ADR-RES ovarian): 4.7 µM | GI50 (SNB-19 CNS): 1.95 µM | TGI (SNB-19 CNS): 4.05 µM | GI50 (CAKI-1 renal): 3.68 µM | TGI (CAKI-1 renal): 15.4 µM | GI50 (BT-549 breast): 3.38 µM | TGI (BT-549 breast): 14.1 µM | GI50 (PC-3 prostate): 2.49 µM | TGI (PC-3 prostate): 8.41 µM | GI50 (SF-268 CNS): 7.52 µM | TGI (SF-268 CNS): 38 µM | GI50 (DU-145 prostate): 2.54 µM | TGI (DU-145 prostate): 6.77 µM | GI50 (MALME-3M melanoma): 1.93 µM | TGI (MALME-3M melanoma): 3.49 µM | GI50 (SK-MEL-2 melanoma): 2.01 µM | TGI (SK-MEL-2 melanoma): 4.4 µM | GI50 (MCF7 breast): 1.72 µM | TGI (MCF7 breast): 4.12 µM | GI50 (HCT-15 colon): 1.59 µM | TGI (HCT-15 colon): 3.24 µM | GI50 (NCI-H522 lung): 2.27 µM | TGI (NCI-H522 lung): 5.52 µM | GI50 (UO-31 renal): 6.81 µM | TGI (UO-31 renal): 22.1 µM | GI50 (MDA-MB-468 breast): 1.54 µM | TGI (MDA-MB-468 breast): 2.95 µM | GI50 (HL-60(TB) leukemia): 2 µM | TGI (HL-60(TB) leukemia): 4.94 µM | GI50 (ACHN renal): 1.96 µM | TGI (ACHN renal): 3.72 µM | GI50 (COLO 205 colon): 4.29 µM | TGI (COLO 205 colon): 31.8 µM | GI50 (UACC-62 melanoma): 1.58 µM | TGI (UACC-62 melanoma): 3.03 µM | GI50 (IGROV1 ovarian): 4.65 µM | TGI (IGROV1 ovarian): 18.5 µM | GI50 (M14 melanoma): 1.65 µM | TGI (M14 melanoma): 3.16 µM | GI50 (HT29 colon): 1.8 µM | TGI (HT29 colon): 3.44 µM | GI50 (OVCAR-3 ovarian): 1.72 µM | TGI (OVCAR-3 ovarian): 3.21 µM | GI50 (NCI-H226 lung): 8.32 µM | TGI (NCI-H226 lung): 26.4 µM | GI50 (SK-MEL-28 melanoma): 1.77 µM | TGI (SK-MEL-28 melanoma): 3.35 µM | GI50 (MDA-MB-435): 1.95 µM | TGI (MDA-MB-435): 4.29 µM | GI50 (UACC-257 melanoma): 2.28 µM | TGI (UACC-257 melanoma): 5.33 µM | GI50 (RPMI-8226 leukemia): 2.23 µM | TGI (RPMI-8226 leukemia): 5.87 µM | GI50 (SF-539 CNS): 1.71 µM | TGI (SF-539 CNS): 3.18 µM | GI50 (EKVX NSCLC): 2.18 µM | TGI (EKVX NSCLC): 8.92 µM | GI50 (KM12 colon): 1.83 µM | TGI (KM12 colon): 5.81 µM | GI50 (HCT-116 colon): 1.72 µM | TGI (HCT-116 colon): 3.3 µM | GI50 (CCRF-CEM leukemia): 1.43 µM | TGI (CCRF-CEM leukemia): 3.72 µM | GI50 (HCC-2998 colon): 1.73 µM | TGI (HCC-2998 colon): 3.44 µM | GI50 (K-562 leukemia): 2.34 µM | TGI (K-562 leukemia): 8.45 µM | GI50 (OVCAR-4 ovarian): 2.11 µM | TGI (OVCAR-4 ovarian): 4.57 µM | GI50 (SK-MEL-5 melanoma): 3.95 µM | TGI (SK-MEL-5 melanoma): 16.8 µM | GI50 (786-0 renal): 1.77 µM | TGI (786-0 renal): 3.46 µM | GI50 (SN12C renal): 10.6 µM | TGI (SN12C renal): 34.9 µM | GI50 (OVCAR-8 ovarian): 2.49 µM | TGI (OVCAR-8 ovarian): 6.67 µM | GI50 (LOX IMVI melanoma): 1.59 µM | TGI (LOX IMVI melanoma): 2.96 µM | GI50 (A549 NSCLC): 2.07 µM | TGI (A549 NSCLC): 4.97 µM | GI50 (TK-10 renal): 1.79 µM | TGI (TK-10 renal): 4.03 µM | GI50 (SF-295 CNS): 1.86 µM | TGI (SF-295 CNS): 4.02 µM | GI50 (HOP-62 NSCLC): 2.36 µM | TGI (HOP-62 NSCLC): 6.63 µM | GI50 (HS 578T breast): 3.19 µM | TGI (HS 578T breast): 15.7 µM | GI50 (SK-OV-3 ovarian): 19.1 µM | TGI (SK-OV-3 ovarian): 36.4 µM | GI50 (U251 CNS): 1.93 µM | TGI (U251 CNS): 3.89 µM | GI50 (HOP-92 NSCLC): 1.71 µM | TGI (HOP-92 NSCLC): 6.42 µM | GI50 (SW-620 colon): 1.77 µM | TGI (SW-620 colon): 3.59 µM

— PubChem BioAssay (NCI)
